Test results taken from patent US9096591B2, “Tetracyclic compounds” (Medivation Technologies, Inc., priority 2007, dated 2015).

What was measured:
[1] = target: T1, human recombinant serotonin (5-Hydroxytryptamine) 5-HT6 receptor (Homo sapiens, UniProt P50406); experiment: Serotonin 5-HT6 radioligand binding ([3H]LSD); design: Inhibition of ligand binding, Ser. 5-HT6: concentration or dose not given beside the values; conditions: percent inhibition of specific binding
T1 construct: expressed in transfected cells; host or cells: human HeLa cells
From the text: Receptor proteins were filtered and washed, the filters were then counted to determine [3H]LSD specifically bound. […] Biochemical assay results are presented as the percent inhibition of specific binding in Table 6.

[2] = target: T2, human recombinant adrenergic α1D receptor (Homo sapiens, UniProt P25100); experiment: Adrenergic α1D radioligand binding ([3H]Prozosin); design: Inhibition of ligand binding, Adren. alpha1D: concentration or dose not given beside the values; conditions: percent inhibition of specific binding
T2 construct: expressed in transfected cells; host or cells: HEK-293 cells
T2 sequence (P25100 1-572): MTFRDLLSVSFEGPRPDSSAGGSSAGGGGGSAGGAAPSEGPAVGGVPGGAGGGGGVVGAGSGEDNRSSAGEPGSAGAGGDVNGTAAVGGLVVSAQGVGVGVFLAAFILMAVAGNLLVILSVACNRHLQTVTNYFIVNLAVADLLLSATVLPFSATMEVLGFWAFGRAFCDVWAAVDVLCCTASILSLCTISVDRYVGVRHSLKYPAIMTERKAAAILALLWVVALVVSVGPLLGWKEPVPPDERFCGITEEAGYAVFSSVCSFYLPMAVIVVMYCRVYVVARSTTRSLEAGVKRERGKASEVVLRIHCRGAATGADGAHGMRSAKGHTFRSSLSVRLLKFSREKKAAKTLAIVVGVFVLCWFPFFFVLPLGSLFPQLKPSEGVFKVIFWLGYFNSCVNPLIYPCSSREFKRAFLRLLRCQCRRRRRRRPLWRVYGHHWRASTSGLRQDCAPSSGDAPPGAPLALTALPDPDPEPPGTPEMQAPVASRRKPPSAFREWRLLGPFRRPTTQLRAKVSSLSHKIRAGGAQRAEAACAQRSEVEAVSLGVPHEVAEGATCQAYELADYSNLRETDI
Method: Compounds of invention were incubated with 0.6 nM [^3H]Prozosin for 60 minutes at 25° C. Non-specific binding was estimated in the presence of 10 μM phentolamine. Receptor proteins were filtered and washed, the filters were then counted to determine [^3H]Prozosin specifically bound. […] Biochemical assay results are presented as the percent inhibition of specific binding in Table 6.

[3] = target: T3, human recombinant serotonin (5-Hydroxytryptamine) 5-HT2C receptor (Homo sapiens, UniProt P28335); experiment: Serotonin 5-HT2C radioligand binding ([3H]Mesulergine); design: Inhibition of ligand binding, Ser. 5-HT2C: concentration or dose not given beside the values; conditions: percent inhibition of specific binding
T3 construct: expressed in transfected cells; host or cells: CHO-K1 cells
T3 sequence (P28335 33-458): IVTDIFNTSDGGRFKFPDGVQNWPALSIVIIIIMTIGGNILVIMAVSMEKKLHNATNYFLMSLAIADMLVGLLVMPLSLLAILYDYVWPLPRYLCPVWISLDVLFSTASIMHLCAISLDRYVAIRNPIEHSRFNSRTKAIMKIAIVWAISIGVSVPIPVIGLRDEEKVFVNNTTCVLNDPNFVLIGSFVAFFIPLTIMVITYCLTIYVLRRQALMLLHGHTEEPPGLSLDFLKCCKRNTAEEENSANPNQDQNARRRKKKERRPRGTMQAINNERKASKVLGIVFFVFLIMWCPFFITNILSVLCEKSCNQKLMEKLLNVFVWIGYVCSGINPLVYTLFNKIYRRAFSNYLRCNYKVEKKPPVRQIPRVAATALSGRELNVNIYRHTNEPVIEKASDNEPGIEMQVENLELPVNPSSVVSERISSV
Method: Compounds of the invention were incubated with 1 nM [^3H]Mesulergine for 60 minutes at 25° C. Non-specific binding was estimated in the presence of 1 μM Mianserin. Receptor proteins were filtered and washed, the filters were then counted to determine [^3H]Mesulergine specifically bound. […] Biochemical assay results are presented as the percent inhibition of specific binding in Table 6.

[4] = target: T4, human recombinant histamine H2 receptor (Homo sapiens, UniProt P25021); experiment: Histamine H2 radioligand binding ([125I]Aminopotentidine); conditions: read-out: Inhibition of ligand binding, Hist. H2
T4 construct: expressed in transfected cells; host or cells: CHO-K1 cells
Method in brief: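 This radioligand binding assay measured displacement of [125I]Aminopotentidine from recombinant human histamine H2 receptors. Compounds were dissolved in 1% DMSO vehicle. Specific binding was calculated by subtracting non-specific binding, defined using 3 μM Tiotidine, and activity was reported as percentage inhibition of that specific binding.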

[5] = target: T5, human recombinant adrenergic α2A receptor (Homo sapiens, UniProt P08913); experiment: Adrenergic α2A radioligand binding ([3H]MK-912); design: Inhibition of ligand binding, Adren. alpha2A: concentration or dose not given beside the values; conditions: percent inhibition of specific binding
T5 construct: expressed in transfected cells; host or cells: insect Sf9 cells
T5 sequence (P08913 1-465): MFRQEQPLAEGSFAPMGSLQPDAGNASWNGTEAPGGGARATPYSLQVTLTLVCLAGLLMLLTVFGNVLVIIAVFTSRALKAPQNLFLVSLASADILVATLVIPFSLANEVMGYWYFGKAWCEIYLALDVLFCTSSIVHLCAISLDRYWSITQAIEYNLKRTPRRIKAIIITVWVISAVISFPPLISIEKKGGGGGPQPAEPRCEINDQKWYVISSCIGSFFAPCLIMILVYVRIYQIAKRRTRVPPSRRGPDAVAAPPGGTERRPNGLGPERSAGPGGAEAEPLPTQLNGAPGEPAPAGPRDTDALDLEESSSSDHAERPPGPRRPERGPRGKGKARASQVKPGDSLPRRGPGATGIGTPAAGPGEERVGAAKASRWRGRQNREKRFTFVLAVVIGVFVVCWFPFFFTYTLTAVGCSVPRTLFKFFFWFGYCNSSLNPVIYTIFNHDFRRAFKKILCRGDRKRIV
Method in brief: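 Membranes from Sf9 cells expressing the receptor were incubated with 1 nM [3H]MK-912 for 60 minutes at 25° C in 50 mM Tris-HCl pH 7.4, 12.5 mM MgCl2, 2 mM EDTA. 10 μM WB-4101 defined non-specific binding. Values are percent inhibition of specific bound radioactivity after filtration.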

T1 sequence (P50406 whole entry): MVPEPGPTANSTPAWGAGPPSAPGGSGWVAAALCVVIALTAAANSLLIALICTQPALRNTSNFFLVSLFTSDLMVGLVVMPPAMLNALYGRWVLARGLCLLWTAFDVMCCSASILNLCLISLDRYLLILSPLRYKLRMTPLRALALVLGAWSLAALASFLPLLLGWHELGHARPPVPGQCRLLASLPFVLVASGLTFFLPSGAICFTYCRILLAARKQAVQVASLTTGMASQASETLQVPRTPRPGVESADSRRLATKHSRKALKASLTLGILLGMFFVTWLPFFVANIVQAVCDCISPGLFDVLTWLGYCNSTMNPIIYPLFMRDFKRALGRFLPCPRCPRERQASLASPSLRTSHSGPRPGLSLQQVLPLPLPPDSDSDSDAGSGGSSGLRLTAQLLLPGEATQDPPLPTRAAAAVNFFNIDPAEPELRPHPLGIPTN
T4 sequence (P25021 whole entry): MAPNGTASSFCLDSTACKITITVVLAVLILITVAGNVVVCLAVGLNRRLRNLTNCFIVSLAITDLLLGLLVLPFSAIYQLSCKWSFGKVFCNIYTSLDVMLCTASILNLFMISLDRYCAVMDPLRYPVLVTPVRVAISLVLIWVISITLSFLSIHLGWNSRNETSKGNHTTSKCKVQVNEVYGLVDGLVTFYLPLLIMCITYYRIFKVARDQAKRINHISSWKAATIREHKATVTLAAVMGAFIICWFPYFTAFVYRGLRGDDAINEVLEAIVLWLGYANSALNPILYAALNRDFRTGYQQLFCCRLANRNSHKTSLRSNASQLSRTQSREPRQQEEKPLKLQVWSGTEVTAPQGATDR

SMILES | Inhibition of ligand binding, Ser. 5-HT6 [1] | Inhibition of ligand binding, Adren. alpha1D [2] | Inhibition of ligand binding, Ser. 5-HT2C [3] | inhibition at 1 µM [4] | Inhibition of ligand binding, Adren. alpha2A [5]
CN1CCc2c(c3cc(Cl)ccc3n2CCc2ccc(C(F)(F)F)nc2)C1 [Compound 250] | 84% | 93% | 79% | 54% | 91%
Cc1ccc2c(c1)c1c(n2CCc2ccc(C)nc2)CCN(C)C1 [Dimebon, dimebon, reference compound] | 95% | 91% | 86% | 83% | 91%
